The source made the active and inactive calls. The rule behind the calls is not given here.
Tests used:
Mus musculus [1] = assay: Up regulation of unnamed protein product (gi74005074) in ICR mouse infected with Plasmodium berghei NK-65 at 50 mg/kg, po administered 4 days post-infection measured after 18 hrs in host blood by 2D-gel electrophoresis; assay type: functional, organism-based; parameters: dose 50 mg/kg
Plasmodium berghei [2] = assay: Down regulation of […] precursor in Plasmodium berghei NK-65 infected in ICR mouse at 50 mg/kg, po administered 4 days post-infection measured after 18 hrs in the host blood by 2D-gel electrophoresis; assay type: functional, organism-based; parameters: dose 50 mg/kg
Plasmodium berghei [3] = assay: Antimalarial activity against Plasmodium berghei NK-65 infected in ICR mouse assessed as parasitemia at 50 mg/kg, po administered 4 days post-infection measured after 18 hrs (reference value: 30 to 40%); assay type: functional
Plasmodium berghei [4] = assay: Down regulation of heat shock protein (gi68071723) in Plasmodium berghei NK-65 infected in ICR mouse at 50 mg/kg, po administered 4 days post-infection measured after 18 hrs in the host blood by 2D-gel electrophoresis; assay type: functional, organism-based; parameters: dose 50 mg/kg
Plasmodium berghei [5] = assay: Down regulation of berghepain-2 in Plasmodium berghei NK-65 infected in ICR mouse at 50 mg/kg, po administered 4 days post-infection measured after 18 hrs in the host blood by 2D-gel electrophoresis; assay type: functional, organism-based; parameters: dose 50 mg/kg
Mus musculus [6] = assay: Down regulation of beta-actin in ICR mouse infected with Plasmodium berghei NK-65 at 50 mg/kg, po administered 4 days post-infection measured after 18 hrs in host blood by 2D-gel electrophoresis; assay type: functional, organism-based; parameters: dose 50 mg/kg
Plasmodium berghei [7] = assay: Down regulation of hypothetical protein (gi68064486) in Plasmodium berghei NK-65 infected in ICR mouse at 50 mg/kg, po administered 4 days post-infection measured after 18 hrs in the host blood by 2D-gel electrophoresis; assay type: functional, organism-based; parameters: dose 50 mg/kg
Mus musculus [8] = assay: Up regulation of unnamed protein product (gi74220592) in ICR mouse infected with Plasmodium berghei NK-65 at 50 mg/kg, po administered 4 days post-infection measured after 18 hrs in host blood by 2D-gel electrophoresis; assay type: functional, organism-based; parameters: dose 50 mg/kg
Plasmodium berghei [9] = assay: Down regulation of hypothetical protein (gi68067763) in Plasmodium berghei NK-65 infected in ICR mouse at 50 mg/kg, po administered 4 days post-infection measured after 18 hrs in the host blood by 2D-gel electrophoresis; assay type: functional, organism-based; parameters: dose 50 mg/kg

With `CCN(CC)c1ccc2nc3c4ccccc4/c(=N/c4ccncc4)cc-3oc2c1.Cl` the Activity (Mus musculus [1]) was “Active”, the Activity (Plasmodium berghei [2]) was “Active” and the Activity (Plasmodium berghei [3]) was 20%. For the same compound, the Activity (Plasmodium berghei [4]) was “Active”, the Activity (Plasmodium berghei [5]) was “Active” and the Activity (Mus musculus [6]) was “Active”. For the same compound, the Activity (Plasmodium berghei [7]) was “Active”, the Activity (Mus musculus [8]) was “Active” and the Activity (Plasmodium berghei [9]) was “Active”.

Source: ChEMBL document CHEMBL1949560, “Plasmodium berghei proteome changes in response to SSJ-183 treatment” (2011)
